Measured values: patent US5096929A, “2-amino-1,2,3,4-tetrahydronaphthalene derivatives with cardiovascular activity, process for their preparation and pharmaceutical compositions containing them” (Chiesi Farmaceutici S.p.A., priority 1989, dated 1992)
Structures can show the parent of a compound that is named as a salt. Where two headings read alike, the source gives them in different places.

Tested on: arterial rat hind quarter
Experiment: Rat perfused hind quarter; vasodilating action
Conditions: for Emax: Rattus norvegicus, 100% = complete reduction
Procedure: Rat perfused hind quarter; vasodilating action
The vasodilating effect of CHF 1255 has been evaluated in the arterial rat hind quarter perfused with Krebs-Henseleit solution at constant flow.
The increase of arterial resistance was induced by K^+ -enriched solution (40 mM), norepinephrine (5×10^-6 M) and serotonin (5×10^-7 M).
Papaverine and prazosin, powerful α-blocker vasodilator, were used as reference compounds.
ED40 =dose (moles) decreasing of 40% the contraction induced by the agonist. 100% was considered as the complete recduction of contraction.

Structure (SMILES): COc1ccc2c(c1OC)CCC(N[C@@H](C)[C@H](O)c1ccc(O)cc1)C2 (relative stereo) [CHF 1255, Erythro-5,6-Dimethoxy-2-[2-(4-hydroxyphenyl)-2-hydroxy-1-mehylethylamino]1,2,3,4-tetrahydronaphthalene hydrochloride]
- Activity against contraction by the different agents (in words) (K+, norepinephrine, serotonin): particularly active on the norepinephrine induced contraction
- Emax (K+ 40 mM, read-out: α (efficacy), K+ induced contraction): 46%
- Emax (norepinephrine 5×10^-6 M, read-out: α (efficacy), norepinephrine induced contraction): 94%
- Emax (serotonin 5×10^-7 M, read-out: α (efficacy), 5-HT induced contraction): 60%
- ED40, K+ induced contraction (dose decreasing contraction by 40%, K+ 40 mM): 1.5e-06 mol
- ED40, norepinephrine induced contraction (dose decreasing contraction by 40%, norepinephrine 5×10^-6 M): 1.2e-08 mol
- ED40, 5-HT induced contraction (dose decreasing contraction by 40%, serotonin 5×10^-7 M): 6.5e-07 mol
